Laboratory results reported in US20260138958A1, “SUBSTITUTED N-PHENYLURACILS AND SALTS THEREOF, AND USE THEREOF AS HERBICIDAL ACTIVE SUBSTANCES” (Bayer Aktiengesellschaft, priority 2022, published 2026).

What was measured:
Assay type in all cases: in vivo
Lolium rigidum (LOLRI) = assay: Post-emergence herbicidal action, greenhouse pot test
Description: (§1) Seeds of monocotyledonous and dicotyledonous weeds and crop plants were placed in sandy loam in plastic or wood-fibre pots, covered with soil and cultivated in a greenhouse under controlled growth conditions. 2 to 3 weeks after sowing, the test plants were treated at the one-leaf stage. The compounds of the invention, formulated in the form of wettable powders (WP) or as emulsion concentrates (EC), were then sprayed onto the green parts of the plants as aqueous suspension or emulsion with addition of 0.5% additive at a water application rate of 600 l/ha (converted). After the test plants had been kept in the greenhouse under optimum growth conditions for about 3 weeks, the activity of the preparations was rated visually in comparison to untreated controls. For example, 100% activity=the plants have died, 0% activity=like control plants.

[1] = system: Abutilon theophrasti (ABUTH); assay: as above
Description: as §1

[2] = system: Polygonum convolvulus (POLCO); assay: as above
Description: as §1

[3] = system: Pharbitis purpurea (PHBPU); assay: as above
Description: as §1

[4] = system: Alopecurus myosuroides (ALOMY); assay: as above
Description: as §1

Veronica persica (VERPE) = assay: as above
Description: as §1

[5] = system: Tripleurospermum inodorum (MATIN); assay: as above
Description: as §1

Bassia scoparia (KCHSC) = assay: as above
Description: as §1

Viola tricolor (VIOTR) = assay: as above
Description: as §1

[6] = system: Amaranthus retroflexus (AMARE); assay: as above
Description: as §1

[7] = system: Digitaria sanguinalis (DIGSA); assay: as above
Description: as §1

[8] = system: Echinochloa crus-galli (ECHCG); assay: as above
Description: as §1

Setaria viridis (SETVI) = assay: as above
Description: as §1

[9] = system: Triticum aestivum (TRZAS); assay: Post-emergence crop plant compatibility, greenhouse pot test
Description: as §1
(§2) The observed effects on selected crop plants are reported here in comparison to the untreated controls (values in %).

Oryza sativa (ORYSA) = assay: as above; settings: Oryza sativa, in vivo
Description: as §1, §2

Zea mays (ZEAMX) = assay: as above; settings: Zea mays, in vivo
Description: as §1, §2

With `Cn1c(C(F)(F)F)cc(=O)n(-c2cc(Oc3ccccc3OCC(=O)OCC3CC34CCC4)c(Cl)cc2F)c1=O` (stereo not drawn) [I.7-19] the “Post-emergence effect at 20 g/ha against LOLRI in %” value (Lolium rigidum (LOLRI)) was 80%, the “Post-emergence effect at 1.25 g/ha against ABUTH in %” value [1] was 100% and the “Post-emergence effect at 5 g/ha against ABUTH in %” value ([1]; 5 g/ha) was 100%. For the same molecule, the “Post-emergence effect at 20 g/ha against ABUTH in %” value ([1]; 20 g/ha) was 100%, the “Post-emergence effect at 5 g/ha against POLCO in %” value ([2]; 5 g/ha) was 100% and the “Post-emergence effect at 20 g/ha against POLCO in %” value ([2]; 20 g/ha) was 100%. For the same molecule, the “Post-emergence effect at 1.25 g/ha against PHBPU in %” value ([3]; 1.25 g/ha) was 80%, the “Post-emergence effect at 5 g/ha against PHBPU in %” value ([3]; 5 g/ha) was 100% and the “Post-emergence effect at 20 g/ha against PHBPU in %” value ([3]; 20 g/ha) was 100%. The “Post-emergence effect at 20 g/ha against ALOMY in %” value ([4]; 20 g/ha) was 100%, the “Post-emergence effect at 1.25 g/ha against VERPE in %” value (Veronica persica (VERPE); 1.25 g/ha) was 90% and the “Post-emergence effect at 5 g/ha against VERPE in %” value (Veronica persica (VERPE); 5 g/ha) was 100%. The “Post-emergence effect at 20 g/ha against VERPE in %” value (Veronica persica (VERPE); 20 g/ha) was 100%, the “Post-emergence effect at 20 g/ha against MATIN in %” value ([5]; 20 g/ha) was 100% and the “Post-emergence effect at 1.25 g/ha against KCHSC in %” value (Bassia scoparia (KCHSC); 1.25 g/ha) was 80%. For the same molecule, the “Post-emergence effect at 5 g/ha against KCHSC in %” value (Bassia scoparia (KCHSC); 5 g/ha) was 80%, the “Post-emergence effect at 20 g/ha against KCHSC in %” value (Bassia scoparia (KCHSC); 20 g/ha) was 100% and the “Post-emergence effect at 1.25 g/ha against VIOTR in %” value (Viola tricolor (VIOTR)) was 100%. For the same molecule, the “Post-emergence effect at 5 g/ha against VIOTR in %” value (Viola tricolor (VIOTR)) was 100%, the “Post-emergence effect at 20 g/ha against VIOTR in %” value (Viola tricolor (VIOTR); 20 g/ha) was 100% and the “Post-emergence effect at 1.25 g/ha against AMARE in %” value ([6]; 1.25 g/ha) was 100%. For the same molecule, the “Post-emergence effect at 5 g/ha against AMARE in %” value ([6]; 5 g/ha) was 100%, the “Post-emergence effect at 20 g/ha against AMARE in %” value ([6]; 20 g/ha) was 100% and the “Post-emergence effect at 5 g/ha against DIGSA in %” value ([7]; 5 g/ha) was 100%. The “Post-emergence effect at 20 g/ha against DIGSA in %” value ([7]; 20 g/ha) was 100%, the “Post-emergence effect at 5 g/ha against ECHCG in %” value [8] was 100% and the “Post-emergence effect at 20 g/ha against ECHCG in %” value ([8]; 20 g/ha) was 100%. For the same molecule, the “Post-emergence effect at 1.25 g/ha against SETVI in %” value (Setaria viridis (SETVI)) was 100%, the “Post-emergence effect at 5 g/ha against SETVI in %” value (Setaria viridis (SETVI); 5 g/ha) was 100% and the “Post-emergence effect at 20 g/ha against SETVI in %” value (Setaria viridis (SETVI); 20 g/ha) was 100%. For the same molecule, the “Post-emergence effect at 1.25 g/ha against TRZAS in %” value ([9]; crop plant, post-emergence, 1.25 g/ha) was 10%.

`Cn1c(C(F)(F)F)cc(=O)n(-c2cc(Oc3ccccc3OCC(=O)OCC3CC3)c(C#N)cc2F)c1=O` [I.9-1, Cyclopropylmethyl (2-{2-cyano-4-fluoro-5-[3-methyl-2,6-dioxo-4-(trifluoromethyl)-3,6-dihydropyrimidin-1(2H)-yl]phenoxy}phenoxy)acetate] was tested, and the “Post-emergence effect at 1.25 g/ha against ABUTH in %” value [1] was 100%, the pest or weed control at 5 g/ha ([1]; Abutilon theophrasti, 504 h, 5 g/ha, read-out: Post-emergence effect at 5 g/ha against ABUTH in %) was 100% and the pest or weed control at 20 g/ha ([1]; Abutilon theophrasti, 504 h, 20 g/ha, read-out: Post-emergence effect at 20 g/ha against ABUTH in %) was 100%. For the same molecule, the pest or weed control at 5 g/ha ([2]; Fallopia convolvulus, 504 h, 5 g/ha, read-out: Post-emergence effect at 5 g/ha against POLCO in %) was 80%, the pest or weed control at 20 g/ha ([2]; Fallopia convolvulus, 504 h, 20 g/ha, read-out: Post-emergence effect at 20 g/ha against POLCO in %) was 100% and the pest or weed control at 5 g/ha ([3]; Ipomoea purpurea, 504 h, 5 g/ha, read-out: Post-emergence effect at 5 g/ha against PHBPU in %) was 100%. For the same molecule, the pest or weed control at 20 g/ha ([3]; Ipomoea purpurea, 504 h, 20 g/ha, read-out: Post-emergence effect at 20 g/ha against PHBPU in %) was 100%, the “Post-emergence effect at 5 g/ha against ALOMY in %” value ([4]; 5 g/ha) was 100% and the pest or weed control at 20 g/ha ([4]; Alopecurus myosuroides, 504 h, 20 g/ha, read-out: Post-emergence effect at 20 g/ha against ALOMY in %) was 100%. For the same molecule, the pest or weed control at 5 g/ha (Veronica persica (VERPE); Veronica persica, 504 h, 5 g/ha, read-out: Post-emergence effect at 5 g/ha against VERPE in %) was 100%, the pest or weed control at 20 g/ha (Veronica persica (VERPE); Veronica persica, 504 h, 20 g/ha, read-out: Post-emergence effect at 20 g/ha against VERPE in %) was 100% and the “Post-emergence effect at 5 g/ha against MATIN in %” value ([5]; 5 g/ha) was 80%. The pest or weed control at 20 g/ha ([5]; Tripleurospermum inodorum, 504 h, 20 g/ha, read-out: Post-emergence effect at 20 g/ha against MATIN in %) was 80%, the “Post-emergence effect at 1.25 g/ha against VIOTR in %” value (Viola tricolor (VIOTR)) was 100% and the “Post-emergence effect at 5 g/ha against VIOTR in %” value (Viola tricolor (VIOTR)) was 100%. For the same molecule, the pest or weed control at 20 g/ha (Viola tricolor (VIOTR); Viola tricolor, 504 h, 20 g/ha, read-out: Post-emergence effect at 20 g/ha against VIOTR in %) was 100%, the pest or weed control at 1.25 g/ha ([6]; Amaranthus retroflexus, 504 h, 1.25 g/ha, read-out: Post-emergence effect at 1.25 g/ha against AMARE in %) was 100% and the pest or weed control at 5 g/ha ([6]; Amaranthus retroflexus, 504 h, 5 g/ha, read-out: Post-emergence effect at 5 g/ha against AMARE in %) was 100%. For the same molecule, the pest or weed control at 20 g/ha ([6]; Amaranthus retroflexus, 504 h, 20 g/ha, read-out: Post-emergence effect at 20 g/ha against AMARE in %) was 100%, the “Post-emergence effect at 1.25 g/ha against ECHCG in %” value ([8]; 1.25 g/ha) was 80% and the “Post-emergence effect at 5 g/ha against ECHCG in %” value [8] was 100%. The pest or weed control at 20 g/ha ([8]; Echinochloa crus-galli, 504 h, 20 g/ha, read-out: Post-emergence effect at 20 g/ha against ECHCG in %) was 100%, the “Post-emergence effect at 1.25 g/ha against SETVI in %” value (Setaria viridis (SETVI)) was 80% and the pest or weed control at 5 g/ha (Setaria viridis (SETVI); Setaria viridis, 504 h, 5 g/ha, read-out: Post-emergence effect at 5 g/ha against SETVI in %) was 100%. For the same molecule, the pest or weed control at 20 g/ha (Setaria viridis (SETVI); Setaria viridis, 504 h, 20 g/ha, read-out: Post-emergence effect at 20 g/ha against SETVI in %) was 100%, the “Post-emergence effect at 1.25 g/ha against TRZAS in %” value ([9]; Triticum aestivum, in vivo) was 0% and the “Post-emergence effect at 20 g/ha against TRZAS in %” value ([9]; Triticum aestivum, in vivo) was 20%. For the same molecule, the “Post-emergence effect at 1.25 g/ha against ORYSA in %” value (Oryza sativa (ORYSA)) was 0%, the “Post-emergence effect at 5 g/ha against ORYSA in %” value (Oryza sativa (ORYSA)) was 0% and the “Post-emergence effect at 20 g/ha against ORYSA in %” value (Oryza sativa (ORYSA)) was 0%. The “Post-emergence effect at 1.25 g/ha against ZEAMX in %” value (Zea mays (ZEAMX)) was 10% and the “Post-emergence effect at 5 g/ha against ZEAMX in %” value (Zea mays (ZEAMX)) was 20%.
